This is an account of results in ChEMBL document CHEMBL4825723, “Synthesis of new methoxy derivatives of trans 2,3-diaryl-2,3-dihydrobenzofurans and evaluation of their anti-inflammatory activity” (Bioorg Med Chem Lett, 2021).

One may read the inhibition as the change of the read-out against control, counted positive when it falls.

Calls of active or inactive are those of the source. The calls are words filed in the database; no cut-off is given here.

In data set [1] the target is T1, Nuclear factor NF-kappa-B complex (Homo sapiens) (UniProt Q00653+P19838+Q04206). Description: Inhibition of NF-kappaB in human U-937 cells assessed as reduction in translocation of p65 NF-kappaB in from cytosol to nucleus at 0.01 uM treated followed by 3 hrs LPS stimulation by Western blot analysis. It is filed as cell-based. In general terms: In western blotting, separated proteins are transferred to a membrane and probed.

Data set [2] deals with T1, Nuclear factor NF-kappa-B complex (Homo sapiens). Description: Inhibition of NF-kappaB in human U-937 cells assessed as reduction in translocation of p65 NF-kappaB in from cytosol to nucleus at 0.01 uM treated followed by 3 hrs LPS stimulation hrs by immunohistochemical staining/confocal microscopy. The format is cell-based.
The subject of data set [3] is U-937. Briefly: Anti-inflammatory activity in human U-937 cells assessed as reduction in LPS-induced ROS production at 0.01 uM followed by LPS stimulation and measured after 24 hrs relative to control. The format is functional, cell-based.
For data set [4], the system named is U-937. Briefly: Anti-inflammatory activity in human U-937 cells assessed as reduction in LPS-induced NO production at 0.01 uM followed by LPS stimulation and measured after 24 hrs relative to control. It is filed as functional, cell-based.
Data set [5] addresses T1, Nuclear factor NF-kappa-B complex (Homo sapiens). Briefly: Inhibition of NF-kappaB activation in human U-937 cells assessed as reduction in LPS-induced ACLY activity after 48 hrs. The format is cell-based.
For data set [6] the target is unchanged. Description: Inhibition of NF-kappaB activation in human U-937 cells assessed as reduction in LPS-induced PGE2 production after 48 hrs. The format is cell-based.
For data set [7] the target is unchanged. Briefly: Inhibition of NF-kappaB in human U-937 cells assessed as reduction in LPS-induced p65 expression at 0.01 uM treated followed by 3 hrs LPS stimulation by Western blot analysis. It is filed as cell-based.
The test system of data set [8] is U-937. Briefly: Cytotoxicity against human U-937 cells assessed as cell viability at 0.01 uM measured after 72 hrs. Conditions: u-937, 72 h. The format is cell-based.

T1 sequence (P19838 whole entry, looked up): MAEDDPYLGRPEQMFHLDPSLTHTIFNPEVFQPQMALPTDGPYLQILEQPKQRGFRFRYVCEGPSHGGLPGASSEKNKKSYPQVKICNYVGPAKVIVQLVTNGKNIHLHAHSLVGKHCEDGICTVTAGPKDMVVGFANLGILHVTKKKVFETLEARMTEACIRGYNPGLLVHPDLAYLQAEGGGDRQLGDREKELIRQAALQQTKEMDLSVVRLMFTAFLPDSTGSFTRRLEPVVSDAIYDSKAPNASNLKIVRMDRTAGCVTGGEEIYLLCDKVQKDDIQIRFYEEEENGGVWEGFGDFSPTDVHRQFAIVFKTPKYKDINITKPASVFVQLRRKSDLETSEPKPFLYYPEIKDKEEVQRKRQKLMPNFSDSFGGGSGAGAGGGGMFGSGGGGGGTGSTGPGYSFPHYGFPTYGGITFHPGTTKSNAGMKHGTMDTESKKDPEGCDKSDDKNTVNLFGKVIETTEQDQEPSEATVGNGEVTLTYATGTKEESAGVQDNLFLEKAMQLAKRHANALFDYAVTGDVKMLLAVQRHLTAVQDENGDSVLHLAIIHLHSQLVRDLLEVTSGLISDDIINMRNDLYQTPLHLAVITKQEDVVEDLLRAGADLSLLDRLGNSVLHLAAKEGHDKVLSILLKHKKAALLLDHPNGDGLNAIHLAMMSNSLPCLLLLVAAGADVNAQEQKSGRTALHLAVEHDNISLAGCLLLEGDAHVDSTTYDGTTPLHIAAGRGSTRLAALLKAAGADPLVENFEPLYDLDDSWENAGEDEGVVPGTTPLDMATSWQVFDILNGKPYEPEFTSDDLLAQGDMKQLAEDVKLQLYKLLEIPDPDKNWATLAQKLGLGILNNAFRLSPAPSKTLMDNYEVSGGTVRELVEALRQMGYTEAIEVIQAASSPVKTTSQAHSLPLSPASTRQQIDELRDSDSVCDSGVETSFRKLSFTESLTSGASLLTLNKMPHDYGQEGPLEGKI
T1 sequence (Q00653 whole entry, looked up): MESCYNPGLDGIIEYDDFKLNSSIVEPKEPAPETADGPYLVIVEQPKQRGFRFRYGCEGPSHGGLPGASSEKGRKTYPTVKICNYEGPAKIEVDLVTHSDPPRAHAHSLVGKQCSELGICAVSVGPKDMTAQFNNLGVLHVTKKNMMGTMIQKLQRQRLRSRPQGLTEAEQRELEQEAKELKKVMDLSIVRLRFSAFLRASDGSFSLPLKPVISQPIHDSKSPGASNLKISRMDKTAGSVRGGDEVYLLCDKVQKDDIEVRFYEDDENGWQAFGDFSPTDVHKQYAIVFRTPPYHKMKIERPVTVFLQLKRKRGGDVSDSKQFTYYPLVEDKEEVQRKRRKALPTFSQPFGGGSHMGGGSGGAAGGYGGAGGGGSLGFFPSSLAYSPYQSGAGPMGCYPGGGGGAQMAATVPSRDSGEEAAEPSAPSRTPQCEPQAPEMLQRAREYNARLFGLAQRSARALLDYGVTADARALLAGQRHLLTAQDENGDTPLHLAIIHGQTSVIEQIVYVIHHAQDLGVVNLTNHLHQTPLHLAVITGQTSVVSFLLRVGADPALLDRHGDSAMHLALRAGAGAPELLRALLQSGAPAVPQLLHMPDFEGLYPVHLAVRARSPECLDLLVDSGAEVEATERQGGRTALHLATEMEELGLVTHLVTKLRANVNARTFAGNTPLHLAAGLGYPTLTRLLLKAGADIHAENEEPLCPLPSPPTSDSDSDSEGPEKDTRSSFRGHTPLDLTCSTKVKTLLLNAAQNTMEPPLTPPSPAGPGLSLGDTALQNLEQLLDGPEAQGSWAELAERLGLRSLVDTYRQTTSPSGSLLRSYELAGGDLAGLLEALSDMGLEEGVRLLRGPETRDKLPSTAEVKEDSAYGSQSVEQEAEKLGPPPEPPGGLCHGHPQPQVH
T1 sequence (Q04206 whole entry, looked up): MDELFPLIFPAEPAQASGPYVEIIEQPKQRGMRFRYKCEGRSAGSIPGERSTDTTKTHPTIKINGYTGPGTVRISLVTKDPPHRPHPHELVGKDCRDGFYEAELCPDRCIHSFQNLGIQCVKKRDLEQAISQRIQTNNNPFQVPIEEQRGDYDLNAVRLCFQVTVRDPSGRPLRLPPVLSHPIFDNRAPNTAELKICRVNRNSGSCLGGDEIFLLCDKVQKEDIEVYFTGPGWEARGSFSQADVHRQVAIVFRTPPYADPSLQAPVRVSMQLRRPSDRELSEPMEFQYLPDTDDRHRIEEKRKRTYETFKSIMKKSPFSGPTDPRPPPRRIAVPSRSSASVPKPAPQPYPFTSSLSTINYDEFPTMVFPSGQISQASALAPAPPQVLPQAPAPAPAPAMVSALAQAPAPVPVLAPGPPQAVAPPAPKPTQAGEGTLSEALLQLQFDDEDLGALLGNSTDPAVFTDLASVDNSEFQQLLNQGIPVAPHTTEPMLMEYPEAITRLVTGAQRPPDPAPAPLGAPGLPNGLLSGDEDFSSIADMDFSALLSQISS

Consider `COc1ccc2c(c1)C(c1ccccc1)C(c1ccccc1)O2` (racemic), for which the inhibition result in data set [1], in data set [2] and in data set [6] was “Active” each time. Further, the result with U-937 [3] and in the data set on U-937 [4] was Active. In addition, in data set [5] (concentration not given here), the inhibition stood at 32%. In data set [7], the “Inhibition of LPS-induced p65 expression” value was “Active”.
In the case of `COc1ccc2c(c1)[C@@H](c1ccc(Br)cc1)[C@H](c1ccccc1)O2`, the inhibition result in data set [1] and in data set [2] was “Active” in each case. Besides, the outcome in the data set on U-937 [3] and with U-937 [4] was Active. In the data set on U-937 [8], the Activity result is given as “Non-Toxic”. In addition, the “Inhibition of LPS-induced p65 expression” value in data set [7] is “Active”.
For the compound `COC1(c2ccc(Br)cc2)c2ccccc2OC1c1ccccc1` (mixture of isomers), the Activity result with U-937 [8] is “Toxic”. Further, in data set [7], the “Inhibition of LPS-induced p65 expression” value is “Active”.
In the case of `COc1ccc2c(c1)[C@@H](c1ccccc1)[C@H](c1ccccc1)O2` [listing 1 of 2 here], the Activity result in the data set with U-937 [8] is on record as “Non-Toxic”.
As to `COc1ccc2c(c1)[C@@H](c1ccccc1)[C@H](c1ccccc1)O2` [listing 2 of 2 here], the inhibition entry in data set [1], in data set [2], in data set [5] and in data set [6] was “Active” in each case. In addition, the result with U-937 [3] and in the data set with U-937 [4] was Active.
On to `COc1ccc2c(c1)C(c1cc(Br)cc(Br)c1)C(c1ccccc1)O2` (stereo not given), for which the Activity entry in the data set on U-937 [8] is on record as “Non-Toxic”.
Take `CO[C@@]1(c2ccccc2)c2ccccc2O[C@H]1c1ccccc1`: the inhibition entry in data set [1] and in data set [2] was “Active” in each case. The result in the data set with U-937 [3] and with U-937 [4] was Active. For the same compound, the Activity result with U-937 [8] is “Non-Toxic”. In addition, in data set [7], the “Inhibition of LPS-induced p65 expression” value is “Active”.
Consider `COc1ccc2c(c1)[C@@H](c1ccc(Br)cc1)[C@@H](c1ccccc1)O2`, for which the inhibition entry in data set [1] and in data set [2] was “Active” each time. Besides, the result in the data set with U-937 [3] and in the data set on U-937 [4] was Active. Further, the Activity entry in the data set with U-937 [8] is “Non-Toxic”. For the same compound, the “Inhibition of LPS-induced p65 expression” value in data set [7] was “Active”.
Turning to `COc1ccc2c(c1)[C@@H](c1ccccc1)[C@H](c1ccccc1)O2` (single isomer, unassigned), the inhibition entry in data set [1] and in data set [2] was “Active” in each case. Also, in data set [7], the “Inhibition of LPS-induced p65 expression” value was “Active”.
Take `COc1ccc2c(c1)[C@@H](c1ccccc1)[C@H](c1ccccc1)O2` (mixture of isomers): the inhibition result in data set [1] and in data set [2] was “Active” each time. In addition, the result in the data set with U-937 [3] and in the data set on U-937 [4] was Active. For the same compound, the inhibition is 43% in data set [5] (concentration not given here) and 28% in data set [6] (concentration not given here). The “Inhibition of LPS-induced p65 expression” value in data set [7] is “Active”.
